Calls of active or inactive are those of the source. The rule behind the calls is not given here.
Biological target: Serine/threonine-protein kinase mTOR (Homo sapiens) (UniProt P42345)
Test: binders of mTOR FRB domain, biophysical, NMR (AID 1648)
Details: NMR binding to FRB domain, chemical shift

Sequence of Serine/threonine-protein kinase mTOR (Homo sapiens) (P42345 2015-2114): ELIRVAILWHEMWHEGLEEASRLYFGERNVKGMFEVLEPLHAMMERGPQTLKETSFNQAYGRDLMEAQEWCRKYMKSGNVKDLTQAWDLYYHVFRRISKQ

Row | SMILES | Kd
1 | O=C(Nc1cccnc1)c1cnn2cccnc12 | > 4 mM (inactive)
2 | O=C(Nc1ccc(-c2nnco2)cc1)c1ccccc1 | > 4 mM (inactive)
3 | Cc1nc2sccn2c1C(=O)O | > 4 mM (inactive)
4 | O=C(NN1CCOCC1)c1ccccc1F | > 4 mM (inactive)
5 | COC(=O)C1=C(C)N(c2cccc(C(C)=O)c2)C(=O)C1 | > 4 mM (inactive)
6 | CC1(C)CC(=O)c2cnn(-c3nc4ccccc4[nH]3)c2C1 | > 4 mM (inactive)
7 | NC(=O)c1cccc2c(=O)oc3ccccc3c12 | > 4 mM (inactive)
8 | COC(=O)[C@@H]1OC(=O)C2OC23[C@@]1(C)CCC1[C@]2(C)C(C[C@H](O)[C@]13C)C(C)(C)[C@H](OC(C)=O)C[C@@H]2OC(C)=O (stereo not given in full) | > 4 mM (inactive)
9 | Cc1occc1C(=O)Nc1nnc(C(F)(F)F)s1 | > 4 mM (inactive)
10 | Cc1ccc(C(=O)Nc2ccncc2)o1 | > 4 mM (inactive)
11 | O=C(O)CC[N+](=O)[O-] | > 4 mM (inactive)
12 | NC(=O)c1ccsc1NC(=O)C1=COCCO1 | > 4 mM (inactive)
13 | COc1ccc(/C=N/n2cn[nH]c2=S)cc1 | > 4 mM (inactive)
14 | Cc1ccc(N2C(=O)C3C4C=CC(O4)C3C2=O)cc1 (stereo not given) | > 4 mM (inactive)
15 | COc1cc(C(=S)N2CCC(C(N)=O)CC2)ccc1O | > 4 mM (inactive)
16 | CCC(CO)NC(=O)c1snnc1C (stereo not given) | > 4 mM (inactive)
17 | COc1cc(O)c(C)c(O)c1 | > 4 mM (inactive)
18 | Nc1c(C(=O)O)sc2ncccc12 | > 4 mM (inactive)
19 | O=C1NC(=S)NC(=O)C1=Cc1ccco1 | > 4 mM (inactive)
20 | S=c1nc2c(n[nH]1)[nH]c1ccccc12 | > 4 mM (inactive)
21 | O=c1[nH]cc(S(=O)(=O)N2CCc3ccccc32)c(=O)[nH]1 | > 4 mM (inactive)
22 | COc1cc2nc(-c3cccs3)oc(=O)c2cc1OC | > 4 mM (inactive)
23 | OC1CC2CCC1C2 (stereo not given) | > 4 mM (inactive)
24 | N#Cc1cccc(Cn2nnc(-c3ccccc3)n2)c1 | > 4 mM (inactive)
25 | CC(=O)Nc1cccc(N(C)S(C)(=O)=O)c1 | > 4 mM (inactive)

Row | SMILES | Kd
26 | Cc1nc(-c2ccccc2)sc1C(N)=O | > 4 mM (inactive)
27 | Nc1cccc(S(=O)(=O)N2CCCCC2)c1 | > 4 mM (inactive)
28 | COc1cc(OC)c2c(=O)c(O)c(-c3ccc(OC)c(OC)c3)oc2c1 | > 4 mM (inactive)
29 | CC(=O)Oc1ccccc1N1C(=O)C=CC1=O | > 4 mM (inactive)
30 | O=c1cccc2n1C[C@H]1CNCC2C1 | > 4 mM (inactive)
31 | CCc1ccccc1OCc1nnc(N)s1 | > 4 mM (inactive)
32 | CCCCCCCCCCCC1=C(O)C(=O)C=C(O)C1=O | > 4 mM (inactive)
33 | O=C1c2ccccc2-c2ncnc3cccc1c23 | > 4 mM (inactive)
34 | Cc1ccc(O)c(NC(=O)c2ccco2)c1 | > 4 mM (inactive)
35 | Cc1cn2c(-c3cccnc3)nnc2s1 | > 4 mM (inactive)
36 | Cc1nc2ccc(C(=O)N3CCSCC3)cc2s1 | > 4 mM (inactive)
37 | O=C1C2CCCCC2C(=O)N1c1nccs1 (stereo not given) | > 4 mM (inactive)
38 | NCCCCNCCCN | > 4 mM (inactive)
39 | Cc1ccccc1-n1c(N)cc(=O)[nH]c1=S | > 4 mM (inactive)
40 | CN1C(=O)CC(=O)N(C)c2ccccc21 | > 4 mM (inactive)
41 | CN(C)C(=O)CSc1nc2ccccc2c(=O)[nH]1 | > 4 mM (inactive)
42 | S=C=NCc1ccccc1 | > 4 mM (inactive)
43 | COc1ccccc1N1C(=N)SCC1=O | > 4 mM (inactive)
44 | Cc1cc(C)c(C(N)=O)c(=S)[nH]1 | > 4 mM (inactive)
45 | Cc1cc2c(=O)n(C)c(SCC(N)=O)nc2s1 | > 4 mM (inactive)
46 | CCOC(=O)C1CCC(=O)c2cccn21 (stereo not given) | > 4 mM (inactive)
47 | c1ccc(Cc2nn3c(-c4ccncc4)nnc3s2)cc1 | > 4 mM (inactive)
48 | O=c1c(O)c(-c2ccccc2)oc2ccc3occc3c12 | > 4 mM (inactive)
49 | N/C(=N/S(=O)(=O)c1cccs1)c1ccccc1 | > 4 mM (inactive)
50 | O=C(CCc1n[nH]c(=O)[nH]c1=O)NCc1ccccc1 | > 4 mM (inactive)
